Measured values from the Deep4Chem optical property database.
Blank lines part the entries; values can stand above or below the compound they belong to.

Experiment: solvent given as SMILES

SMILES: CN(C)c1ccc(/C=C/C=C2\CC/C(=C\C=C\c3ccc(N(C)C)cc3)C2=O)cc1
- emission maximum (in C1CCCCC1): 500 nm
- emission maximum (in CC#N): 717 nm
- emission maximum (in CC(C)=O): 694 nm
- emission maximum (in CC(C)O): 718 nm
- emission maximum (in CCCCCC): 496 nm
- emission maximum (in CCCCO): 739 nm
- emission maximum (in CCCO): 740 nm
- emission maximum (in CCO): 744 nm
- emission maximum (in CCOC(C)=O): 644 nm
- emission maximum (in CCOCC): 586 nm
- emission maximum (in CN(C)C=O): 715 nm
- emission maximum (in CO): 735 nm
- emission maximum (in CS(C)=O): 727 nm
- emission maximum (in Cc1ccccc1): 553 nm
- emission maximum (in ClC(Cl)(Cl)Cl): 537 nm
- emission maximum (in ClCCl): 672 nm
- emission maximum (in OCC(F)(F)F): 764 nm
- emission maximum (in S=C=S): 568 nm
- emission maximum (in c1ccccc1): 567 nm
- emission maximum (in c1ccncc1): 681 nm

SMILES: CC(C)(C)c1ccc(-c2cc3c4c(c2)CCc2cc(-c5ccc(C(C)(C)C)cc5)cc(c2-4)CC3)cc1
- emission maximum (in C1CCCCC1): 382.09 nm
- emission maximum (in C1CCOC1): 384.87 nm
- emission maximum (in CC#N): 383.16 nm
- emission maximum (in CCCCCC): 381.02 nm
- emission maximum (in CCO): 382.73 nm
- emission maximum (in CN(C)C=O): 386.79 nm
- emission maximum (in CO): 381.87 nm
- emission maximum (in ClC(Cl)Cl): 387.93 nm
- emission maximum (in ClCCl): 386.36 nm

SMILES: Cc1ccc(/C2=c3\cc/c(o3)=C(\c3ccc(C)cc3)c3ccc([nH]3)-c3ccc4n3[P-](=O)(=O)[N+]3=C(C=CC3=C4c3ccco3)c3ccc2[nH]3)cc1
- emission maximum (in ClC(Cl)Cl): 744 nm

SMILES: CC1=CC(c2ccc(N(C)C)cc2)=[N+]2C1=Nc1c(C)cc(-c3ccc(N(C)C)cc3)n1[B-]2(F)F
- emission maximum (in C1CCOC1): 791 nm
- emission maximum (in CS(C)=O): 822 nm
- emission maximum (in Cc1ccccc1): 779 nm

SMILES: COc1ccc2cc(C#N)c(=N)oc2c1
- emission maximum (in ClCCl): 387 nm

SMILES: COc1ccc(-c2csc(/C(C#N)=C/c3ccc(Cl)cc3)n2)cc1
- emission maximum (in CC#N): 543 nm

SMILES: COc1ccc(/C=C/c2cc(/C=C/c3ccc(OC)cc3)nc(/C=C/c3ccc4cc(OC)ccc4c3)n2)cc1
- emission maximum (in C1CCOC1): 433 nm
- emission maximum (in CC#N): 463 nm
- emission maximum (in CC(C)=O): 445 nm
- emission maximum (in CCCCCCC): 401 nm
- emission maximum (in CS(C)=O): 471 nm
- emission maximum (in Cc1ccccc1): 411 nm
- emission maximum (in ClCCl): 443 nm

SMILES: CCCCCCCCCCCCOc1cc2c3c(ccc4c5c(N6CCOCC6)cc6c7c(ccc(c1c34)c75)C(=O)N(C1CCCCC1)C6=O)C(=O)N(C1CCCCC1)C2=O
- emission maximum (in ClC(Cl)Cl): 697 nm

SMILES: CC(C)[Si](C#Cc1c2ccc(C(C)(C)C)cc2c(C#Cc2c3ccc(C(C)(C)C)cc3c(C#Cc3c4ccc(C(C)(C)C)cc4c(C#C[Si](C(C)C)(C(C)C)C(C)C)c4ccc(C(C)(C)C)cc34)c3ccc(C(C)(C)C)cc23)c2ccc(C(C)(C)C)cc12)(C(C)C)C(C)C
- emission maximum (in Cc1ccccc1): 589 nm

SMILES: CCCCCCCCCCCCN1C(=O)c2cccc3c(N(Cc4ccccn4)Cc4ccccn4)c4ccccc4c(c23)C1=O
- emission maximum (in C1CCOC1): 583 nm
- emission maximum (in CCCCCC): 555 nm
- emission maximum (in CCO): 597 nm
- emission maximum (in Cc1ccccc1): 573 nm
- emission maximum (in ClCCl): 587 nm

SMILES: F[B-]1(F)n2cccc2C=C2c3ccccc3C(c3ccc[nH]3)=[N+]21
- emission maximum (in C1CCOC1): 596 nm
- emission maximum (in CC#N): 594 nm
- emission maximum (in CCCCCC): 588 nm
- emission maximum (in CO): 592 nm
- emission maximum (in Cc1ccccc1): 600 nm
- emission maximum (in ClCCl): 599 nm

SMILES: O=C1Cc2cc3c(cc2CCCc2ccc(cc2)CCC3)CC(=O)Cc2ccc(c3nsnc23)C1
- emission maximum (in C1CCCCC1): 501 nm
- emission maximum (in CC#N): 544 nm
- emission maximum (in ClC(Cl)Cl): 522 nm

SMILES: Cc1c(C)c(N2c3ccccc3CCc3ccccc32)c(C)c(C)c1-c1nc(-c2ccccc2)nc(-c2ccccc2)n1
- emission maximum (in Cc1ccccc1): 457.94 nm

SMILES: Cc1cc(-c2ccc(-c3ccccc3)cc2)nc(-c2ccc(-n3c4ccccc4c4ccccc43)cc2)n1
- emission maximum (in C1CCOC1): 418 nm
- emission maximum (in CN(C)C=O): 474 nm
- emission maximum (in Cc1ccccc1): 386 nm
- emission maximum (in ClC(Cl)Cl): 416 nm

SMILES: c1ccc([B-]2(c3ccccc3)Oc3ccc4ccccc4c3-c3c4ccccc4cc[n+]32)cc1
- emission maximum (in Cc1ccccc1): 522 nm

SMILES: CC(C)(C(=O)c1ccc(N2c3ccccc3C(C)(C)c3ccccc32)cc1)C(=O)c1ccc(N2c3ccccc3C(C)(C)c3ccccc32)cc1
- emission maximum (in Cc1ccccc1): 506 nm
- emission maximum (in c1ccc2c(c1)c1ccccc1n2-c1ccc(-c2ccc(-n3c4ccccc4c4ccccc43)cc2)cc1): 495.97 nm

SMILES: Cc1ccsc1-c1cc2c3cc(-c4sccc4C)c4nc(C(F)(F)C(F)(F)C(F)(F)F)nc5c(-c6sccc6C)cc(c6cc(-c7sccc7C)c7nc(C(F)(F)C(F)(F)C(F)(F)F)nc1c7c26)c3c45
- emission maximum (in C1CCOC1): 627 nm

SMILES: CC1(C)c2ccccc2N(c2ccc(-c3nc(-c4ccccn4)n(-c4ccc(N5c6ccccc6C(C)(C)c6ccccc65)cc4)n3)cc2)c2ccccc21
- emission maximum (in ClCCl): 445 nm

SMILES: O=C([O-])c1ccc(C(=O)[O-])c(C2=c3cc4c5c(c3Oc3c2cc2c6c3CCCN6CCC2)CCC[N+]=5CCC4)c1
- emission maximum (in CCO): 596 nm
- emission maximum (in O): 603 nm

SMILES: N#Cc1nc(N(Cc2ccc(I)cc2)Cc2ccc(I)cc2)c(C#N)nc1N(Cc1ccc(I)cc1)Cc1ccc(I)cc1
- emission maximum (in ClC(Cl)Cl): 574 nm

SMILES: CC(C)[Si](C#Cc1c2nc3c(nc2c(C#C[Si](C(C)C)(C(C)C)C(C)C)c2nc4ccccc4nc12)C1c2ccccc2C3c2ccccc21)(C(C)C)C(C)C
- emission maximum (in CCCCCC): 563 nm

SMILES: CC(C)(C)c1ccc(C2=c3c(c4ccc(C(C)(C)C)cc4c4cc(C(C)(C)C)ccc34)=[N+]3C2=C(c2ccccc2)c2c(-c4ccc(C(C)(C)C)cc4)c4c5ccc(C(C)(C)C)cc5c5cc(C(C)(C)C)ccc5c4n2[B-]3(F)F)cc1
- emission maximum (in C1CCCCC1): 711 nm
- emission maximum (in C1CCOC1): 712 nm
- emission maximum (in CC#N): 706 nm
- emission maximum (in Cc1ccccc1): 714 nm
- emission maximum (in ClCCl): 712 nm

SMILES: CC(C)Nc1cc2c(cc1F)c(=O)c1cc(F)c(NC(C)C)cc1n2C(C)C
- emission maximum (in CCO): 423 nm

SMILES: COc1ccc(-n2c(C)ccc2C)cc1
- emission maximum (in CC#N): 421 nm
- emission maximum (in CCCCCC): 336 nm

SMILES: COc1cc2c3cc(OC)c(OC)cc3c3cc4c(C)cc(=O)oc4cc3c2cc1OC
- emission maximum (in C1CCOC1): 489 nm
- emission maximum (in CO): 556 nm
- emission maximum (in CS(C)=O): 519 nm
- emission maximum (in Cc1ccccc1): 463 nm
- emission maximum (in ClC(Cl)Cl): 491 nm

SMILES: Cc1ccc(-c2cc(-c3ccccc3)c(C#N)c(=S)[nH]2)cc1
- emission maximum (in C1CCCCC1): 504 nm
- emission maximum (in C1COCCO1): 506 nm
- emission maximum (in CC#N): 488 nm
- emission maximum (in CCCCO): 503 nm
- emission maximum (in CCCO): 490 nm
- emission maximum (in CCO): 462 nm
- emission maximum (in CCOC(C)=O): 522 nm
- emission maximum (in CCOCC): 524 nm
- emission maximum (in CN(C)C=O): 502 nm
- emission maximum (in ClC(Cl)(Cl)Cl): 508 nm

SMILES: C(#Cc1c(C#Cc2ccccc2)c(C#Cc2ccccc2)c(C#Cc2ccccc2)c(C#Cc2ccccc2)c1C#Cc1ccccc1)c1ccccc1
- emission maximum (in ClCCl): 452 nm

SMILES: COc1ccc(C2=C3C(/C=C/c4cc(OC)c(OC)c(OC)c4)=C(C=O)C(C)=[N+]3[B-](F)(F)n3c(C)c(C=O)c(C=Cc4cc(OC)c(OC)c(OC)c4)c32)cc1
- emission maximum (in ClCCl): 673 nm

SMILES: N#Cc1cc(C#N)c(-n2c3ccccc3c3c(-c4cccc5c4c4ccccc4n5-c4cc(-n5c6ccccc6c6ccccc65)c(C#N)cc4C#N)cccc32)cc1-n1c2ccccc2c2ccccc21
- emission maximum (in O=P(c1ccccc1)(c1ccccc1)c1ccccc1Oc1ccccc1P(=O)(c1ccccc1)c1ccccc1): 444 nm

SMILES: COc1ccc(C2=CC(c3ccc4cc(N(C)C)ccc4c3)=[O+][B-](F)(F)O2)cc1
- emission maximum (in C1CCOC1): 618 nm
- emission maximum (in CC#N): 681 nm
- emission maximum (in CC(C)=O): 660 nm
- emission maximum (in CS(C)=O): 698 nm
- emission maximum (in Cc1ccccc1): 555 nm
- emission maximum (in ClC(Cl)Cl): 596 nm
- emission maximum (in ClCCl): 631 nm

SMILES: O=c1c2cc(F)c(N3CCCCC3)cc2oc2cc(N3CCCCC3)c(F)cc12
- emission maximum (in CCO): 457 nm

Continued, values first:

- emission maximum (in CCO): 433 nm
- emission maximum (in ClCCl): 436 nm
SMILES: c1cnc(-c2c3ccccc3c(-c3cncnc3)c3ccccc23)nc1

- emission maximum (in CCCCCC): 620 nm
- emission maximum (in CCCCCCCCO): 629 nm
- emission maximum (in CCOC(C)=O): 623 nm
- emission maximum (in CN(C)C=O): 630 nm
- emission maximum (in ClCCl): 633 nm
SMILES: COc1ccc(C#Cc2c3ccccc3c3n2[B-](F)(F)[N+]2=C(C)C=C(C)C2=C3)cc1

- emission maximum (in CS(C)=O): 508 nm
SMILES: c1csc(-c2nc3ccccc3c3cc4ccccn4c23)c1

- emission maximum (in CC1CCCO1): 484 nm
SMILES: O=c1cc2c(Br)c(O)c3cccc4ccc(o1)c2c43

- emission maximum (in ClCCl): 477 nm
SMILES: COc1ccc(-c2cc3c(ccc4sc5ccc6sc(-c7ccc(C(C)=O)cc7)cc6c5c43)s2)cc1

- emission maximum (in C1CCCCC1): 543 nm
- emission maximum (in C1CCOC1): 541 nm
- emission maximum (in CC#N): 555 nm
- emission maximum (in CCO): 553 nm
- emission maximum (in O): 539 nm
SMILES: F[B-]1(F)N(c2ccccc2)C=Cc2cccc[n+]21

- emission maximum (in CC#N): 430 nm
SMILES: Cc1cc(=O)c2c(ccc3ccc(O)cc32)o1

- emission maximum (in ClC(Cl)Cl): 670 nm
SMILES: Cc1cc(C)c(C2=C3C=CC=[N+]3[B-]3(c4ccc5ccc6cccc7ccc4c5c67)Oc4cc(O)cc5c6ccc(C)cc6c6cc2n3c6c45)c(C)c1 (stereo unspecified)

- emission maximum (in ClC(Cl)Cl): 423 nm
SMILES: Cc1cc(=O)oc2cc3c4ccc(C(C)(C)C)cc4c4cc(C(C)(C)C)ccc4c3cc12

- emission maximum (in O): 520 nm
SMILES: CC[n+]1c(-c2ccccc2)c2cc(NC(N)=O)ccc2c2ccc(NC(N)=O)cc21

- emission maximum (in CCO): 458 nm
SMILES: Cc1c(COC(=O)c2ccccc2Br)n2c(OCC(=O)c3ccccc3Br)c(C)c(=O)n2c1=O

- emission maximum (in ClCCl): 583 nm
SMILES: CCCCCCOc1cc(N(CC)CC)ccc1/C=C/C(=C(C#N)C#N)c1ccc2c(c1)c1ccccc1n2CC

- emission maximum (in C1CCOC1): 381 nm
SMILES: CCCCOc1cc2ccccc2c2c1oc1cc3ccccc3cc12

- emission maximum (in C1CCOC1): 442 nm
- emission maximum (in CC#N): 550 nm
- emission maximum (in CS(C)=O): 589 nm
- emission maximum (in ClC(Cl)Cl): 436 nm
SMILES: N=c1oc2ccccc2cc1-c1ccc([N+](=O)[O-])cc1

- emission maximum (in ClCCl): 756 nm
SMILES: Cc1ccc(/N=C2/C3=c4[nH]c5ccccc5c4=[N+](c4ccc(C)cc4)[B-](F)(F)N3c3ccccc32)cc1

- emission maximum (in ClCCl): 448 nm
SMILES: CCOC(=O)c1sc(-c2ccc(-c3cc(C4CC4)c(C(=O)OCC)s3)s2)cc1C1CC1

- emission maximum (in ClCCl): 501 nm
SMILES: CCN(CC)c1ccc2c(c1)oc(=O)c1cc3cnn(-c4ccccc4)c3nc12

- emission maximum (in CCO): 420 nm
SMILES: C[n+]1c2c(c(-c3ccccc3)c3c1CCCC3)CCCC2
